From US4335111A, “Compounds associating peptidyl of aminoacyl residues to lipophilic groups and pharmaceutical compositions containing said new compounds” (priority 1978, dated 1982) come the findings set out here.

The test system of one data set is Klebsiella pneumoniae. The data set is described as follows: Anti-infectious activity: protection of mice inoculated with Klebsiella pneumoniae. The format is in vivo. As to conditions: for Protection (%) / Survival at day 10 of infection No/total: 100 μg i.v. at day -1; for Protection (%): i.m. infection with 1.5 × 10^4 viable organisms, difference between percentages of survivors in treated and control group; for Survival at day 10 of infection No/total: infection by the intramuscular route with 1.5 × 10^4 viable organisms; for % protection: difference of percentages of survivors, treated vs control group.

The conditions of data set [1]: concentration as high as 100 μg/ml.
The next data set has as its system adrenalectomized mice. To be noted: 100 μg injected intravenously into five adrenalectomized mice.
Another data set deals with rabbits. To be noted: doses as high as 5 mg/kg of body weight.
[2] abbreviates: 100 μg i.v. 24 H before infection, infection 3.10^4 K.p. i.m., 24 mice at day 0.
Setting [3] is: 100 μg i.v. 24 H before infection, infection 4.10^3 K.p. i.v., 24 mice at day 0 (8 for glyceryl-mycolate).

Turning to “1-O(L-Ala-D-isoAsn-L-Ala)-glycerol-3-mycolate”, in the data set with Klebsiella pneumoniae, the “Protection (%)” value is on record as 37% and the “Survival at day 10 of infection No/total” value is 16/32.

As to “1-O(L-alanyl-D-isoglutaminyl-L-alanyl)glycerol-3-mycolate”, the Limulus test result in data set [1] is on record as “negative”. The “death of adrenalectomized mice” value with adrenalectomized mice is listed as “did not cause death of any of them”. The “hyperthermizing (pyrogenic) effect” value with rabbits is given as “no hyperthermizing effect”. Besides, in the data set on Klebsiella pneumoniae (setting [2]), the “Number of mice day 3” value is recorded as 23, the “Number of mice day 5” value is reported as 20 and the “Number of mice day 10” value came out at 17. The “% protection” value in the data set on Klebsiella pneumoniae (100 μg i.v. 24 H before infection, infection 3.10^4 K.p. i.m.) came out at 37%. Besides, in the data set on Klebsiella pneumoniae (setting [3]), the “Number of mice day 3” value was found to be 21, the “Number of mice day 5” value is given as 21 and the “Number of mice day 10” value is reported as 21. The “% protection” value in the data set with Klebsiella pneumoniae (100 μg i.v. 24 H before infection, infection 4.10^3 K.p. i.v.) was 79%. Further, in the data set on Klebsiella pneumoniae, the “Protection (%)” value came to 70% and the “Survival at day 10 of infection No/total” value was 31/40.

Take “1-O-(D-isoGln-L-Ala)-glycerol-3-mycolate hydrochloride”: in the data set with Klebsiella pneumoniae, the “Protection (%)” value amounted to 47% and the “Survival at day 10 of infection No/total” value is 28/49.

Turning to “1-O-(L-Ala-D-Gln-L-Ala)-glycerol-3-mycolate”, in the data set with Klebsiella pneumoniae, the “Protection (%)” value is 12% and the “Survival at day 10 of infection No/total” value is 8/32.

Consider “1-O-(L-Ala-D-isoGln-L-Ala)-glycerol-3-corynomycolate”, for which, in the data set on Klebsiella pneumoniae, the “Protection (%)” value came out at 28% and the “Survival at day 10 of infection No/total” value is listed as 11/32.

Take “1-O-(L-alanyl)-glycerol-3-mycolate hydrochloride [1-O--(L--Ala)--glycerol-3-mycolate]”: in the data set on Klebsiella pneumoniae, the “Protection (%)” value is on record as 35% and the “Survival at day 10 of infection No/total” value is recorded as 16/40.

In the case of “1-O-(L-alanyl-L-isoglutaminyl-L-alanyl)-glycerol-3-mycolate hydrochloride”, in the data set with Klebsiella pneumoniae, the “Protection (%)” value turned out to be 12% and the “Survival at day 10 of infection No/total” value is recorded as 7/32.

In the case of “1-O-(β-Ala-D-isoGln-L-Ala)-glycerol-3-mycolate hydrochloride”, in the data set on Klebsiella pneumoniae, the “Protection (%)” value is 25% and the “Survival at day 10 of infection No/total” value is reported as 12/32.

Take `CCCCCCCCCCCCCCCCCC(=O)OCC(COC(=O)[C@H](C)NC(=O)CC[C@@H](NC(=O)[C@H](C)N)C(N)=O)OC(=O)CCCCCCCCCCCCCCCCC.Cl` (stereo partly drawn) [1-O-(L-Ala-D-isoGln-L-Ala)-glycerol-2,3-distearate hydrochloride]: in the data set with Klebsiella pneumoniae, the “Protection (%)” value amounted to 12% and the “Survival at day 10 of infection No/total” value is 5/24.

As for `CCCCCCCCCCCCCCCCCC(=O)OCC(O)COC(=O)[C@H](C)NC(=O)CC[C@@H](NC(=O)[C@H](C)N)C(N)=O.Cl` (stereo partly drawn) [1-O-(L-Ala-D-isoGln-L-Ala)-glycerol-3-stearate hydrochloride], in the data set with Klebsiella pneumoniae, the “Protection (%)” value is 8% and the “Survival at day 10 of infection No/total” value is recorded as 4/24.

Consider `CCCCCCCCCCOC(=O)C(C)NC(=O)CCC(NC(=O)C(C)N)C(N)=O.Cl` [DP--L--Ala--decyl ester, L-Ala-D-isoGln-L-Ala-n-decylester hydrochloride], for which, in the data set with Klebsiella pneumoniae, the “Protection (%)” value is listed as 0% and the “Survival at day 10 of infection No/total” value is listed as 1/24.

As for `CCCCCCCCCCCCCCCOC(=O)[C@H](C)NC(=O)CC[C@@H](NC(=O)[C@H](C)N)C(N)=O.Cl` [DP--L--Ala--pentadecylester, L-Ala-D-isoGln-L-Alan-n-pentadecylester hydrochloride], in the data set on Klebsiella pneumoniae, the “Protection (%)” value turned out to be 4% and the “Survival at day 10 of infection No/total” value was 4/32.

Regarding “glycerol-3-mycolate [Glyceryl-mycolate, reference compound]”, in the data set on Klebsiella pneumoniae (mouse, in vivo, iv), the “Number of mice day 3” value stood at 1, the “Number of mice day 5” value amounted to 1, the “Number of mice day 10” value amounted to 1 and the “anti-infectious activity (in words)” value is reported as “devoid of significant activity”.
